The values below come from ChEMBL document CHEMBL3632577, “Lead optimization of the VU0486321 series of mGlu1 PAMs. Part 1: SAR of modifications to the central aryl core” (Bioorg Med Chem Lett, 2015).

One experiment concerns the target T1, Metabotropic glutamate receptor 1 (Homo sapiens, UniProt Q13255). Briefly: Positive allosteric modulation of human mGluR1 by calcium mobilization assay. Format: functional.
Details: not given
Target sequence in this assay (Q13255 whole entry): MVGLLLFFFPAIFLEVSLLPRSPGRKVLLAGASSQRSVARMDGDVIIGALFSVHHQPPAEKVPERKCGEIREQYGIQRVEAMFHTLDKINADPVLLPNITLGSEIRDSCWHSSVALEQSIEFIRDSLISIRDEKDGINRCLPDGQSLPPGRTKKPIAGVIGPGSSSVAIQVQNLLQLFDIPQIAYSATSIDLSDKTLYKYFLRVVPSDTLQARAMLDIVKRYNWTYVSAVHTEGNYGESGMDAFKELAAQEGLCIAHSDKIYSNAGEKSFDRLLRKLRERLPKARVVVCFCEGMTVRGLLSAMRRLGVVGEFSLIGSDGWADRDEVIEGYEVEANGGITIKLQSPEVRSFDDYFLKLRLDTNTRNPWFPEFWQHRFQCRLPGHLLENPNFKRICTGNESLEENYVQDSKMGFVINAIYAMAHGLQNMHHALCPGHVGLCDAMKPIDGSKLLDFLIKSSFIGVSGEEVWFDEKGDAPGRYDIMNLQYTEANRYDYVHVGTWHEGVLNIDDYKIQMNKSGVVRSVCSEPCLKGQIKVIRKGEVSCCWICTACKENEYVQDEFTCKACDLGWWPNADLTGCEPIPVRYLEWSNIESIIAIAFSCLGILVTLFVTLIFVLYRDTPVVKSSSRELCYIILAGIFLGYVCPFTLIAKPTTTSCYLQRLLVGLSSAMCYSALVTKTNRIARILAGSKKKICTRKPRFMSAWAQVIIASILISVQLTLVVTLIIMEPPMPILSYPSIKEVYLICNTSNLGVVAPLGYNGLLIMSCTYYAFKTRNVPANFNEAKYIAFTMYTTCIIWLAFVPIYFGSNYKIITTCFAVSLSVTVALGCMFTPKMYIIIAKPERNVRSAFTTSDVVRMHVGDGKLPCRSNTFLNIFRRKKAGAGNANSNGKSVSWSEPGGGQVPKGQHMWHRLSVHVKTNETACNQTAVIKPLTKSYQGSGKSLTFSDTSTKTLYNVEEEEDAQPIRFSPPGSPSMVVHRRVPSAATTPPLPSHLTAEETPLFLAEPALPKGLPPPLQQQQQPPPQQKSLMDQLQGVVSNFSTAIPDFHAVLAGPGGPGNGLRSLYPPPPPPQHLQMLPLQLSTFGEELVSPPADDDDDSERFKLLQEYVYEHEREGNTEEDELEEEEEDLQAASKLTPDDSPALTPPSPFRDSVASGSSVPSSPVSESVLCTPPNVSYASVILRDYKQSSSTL
For the compound `Cc1ccoc1C(=O)Nc1ccc(N2C(=O)c3cccc(C)c3C2=O)cc1`, the EC50 amounted to 16.2 nM.
On the same count and under the same terms, in the case of `Cc1ccoc1C(=O)Nc1ccc(N2C(=O)c3cccc(C)c3C2=O)c(C(F)(F)F)c1` it was 537 nM; in that of `Cc1ccoc1C(=O)Nc1cnc(N2C(=O)c3cccc(Cl)c3C2=O)nc1`, 209 nM.
On the same count and under the same terms, in the case of `Cc1ccoc1C(=O)Nc1ccc(N2C(=O)c3ccccc3C2=O)c(F)c1` it was 22.4 nM.
Still for that read-out and setting: the figure for `COc1cc(N2C(=O)c3ccccc3C2=O)ccc1NC(=O)c1occc1C` is 331 nM.
Turning to `Cc1ccoc1C(=O)Nc1ccc(N2C(=O)c3cccc(C)c3C2=O)c(F)c1`, the EC50 is 26.3 nM.
On the same count and under the same terms, in the case of `Cc1cc(NC(=O)c2occc2C)ccc1N1C(=O)c2ccccc2C1=O` it was 89.1 nM; in that of `COc1cc(NC(=O)c2occc2C)ccc1N1C(=O)c2cccc(Cl)c2C1=O`, 18.2 nM; in that of `Cc1ccoc1C(=O)Nc1ccc(N2C(=O)c3cccc(Cl)c3C2=O)nc1`, 34.7 nM.
The same measure, in the same setting: in the case of `Cc1ccoc1C(=O)Nc1ccc(N2C(=O)c3cccc(F)c3C2=O)c(C(F)(F)F)c1` it was 155 nM; in that of `Cc1ccoc1C(=O)Nc1ccc(N2C(=O)c3cccc(Cl)c3C2=O)c2ccccc12`, 22.4 nM; in that of `Cc1ccoc1C(=O)Nc1ccc(N2C(=O)c3ccccc3C2=O)nc1`, 389 nM.
Still for that read-out and setting: the figure for `COc1cc(NC(=O)c2occc2C)ccc1N1C(=O)c2cccc(F)c2C1=O` is 145 nM; for `Cc1ccoc1C(=O)Nc1ccc(N2C(=O)c3ccccc3C2=O)c2ccccc12` it is 20.4 nM.
On to `Cc1cc(NC(=O)c2occc2C)ccc1N1C(=O)c2cccc(F)c2C1=O`, for which the EC50 worked out at 49 nM.
The same measure, in the same setting: the figure for `Cc1ccoc1C(=O)Nc1ccc(N2C(=O)c3ccccc3C2=O)cc1C(F)(F)F` is > 10000 nM; for `Cc1ccoc1C(=O)Nc1ccc(N2C(=O)c3cccc(F)c3C2=O)cc1` it is 43.7 nM.

The experiment is the same for the next values; noted with them: read-out: EC50.
With `Cc1ccoc1C(=O)Nc1ccc(N2C(=O)c3cccc(C)c3C2=O)cc1`, the EC50 was determined as 16 nM.
`Cc1ccoc1C(=O)Nc1ccc(N2C(=O)c3cccc(C)c3C2=O)c(C(F)(F)F)c1`: the EC50 amounted to 530 nM.
On the same count and under the same terms, the figure for `Cc1ccoc1C(=O)Nc1cnc(N2C(=O)c3cccc(Cl)c3C2=O)nc1` is 208 nM.
On the same count and under the same terms, the figure for `Cc1ccoc1C(=O)Nc1ccc(N2C(=O)c3ccccc3C2=O)c(F)c1` is 22 nM.
On to `COc1cc(N2C(=O)c3ccccc3C2=O)ccc1NC(=O)c1occc1C`, for which the EC50 was found to be 330 nM.
On the same count and under the same terms, in the case of `Cc1ccoc1C(=O)Nc1ccc(N2C(=O)c3cccc(C)c3C2=O)c(F)c1` it was 26 nM; in that of `Cc1cc(NC(=O)c2occc2C)ccc1N1C(=O)c2ccccc2C1=O`, 89 nM; in that of `COc1cc(NC(=O)c2occc2C)ccc1N1C(=O)c2cccc(Cl)c2C1=O`, 18 nM.
Still for that read-out and setting: the figure for `Cc1ccoc1C(=O)Nc1ccc(N2C(=O)c3cccc(Cl)c3C2=O)nc1` is 35 nM; for `Cc1ccoc1C(=O)Nc1ccc(N2C(=O)c3cccc(F)c3C2=O)c(C(F)(F)F)c1` it is 155 nM.
On the same count and under the same terms, the figure for `Cc1ccoc1C(=O)Nc1ccc(N2C(=O)c3cccc(Cl)c3C2=O)c2ccccc12` is 23 nM.
On to `Cc1ccoc1C(=O)Nc1ccc(N2C(=O)c3ccccc3C2=O)nc1`, for which the EC50 was determined as 387 nM.
Same read-out and setting: the figure for `COc1cc(NC(=O)c2occc2C)ccc1N1C(=O)c2cccc(F)c2C1=O` is 144 nM; for `Cc1ccoc1C(=O)Nc1ccc(N2C(=O)c3ccccc3C2=O)c2ccccc12` it is 20 nM.
Take `Cc1cc(NC(=O)c2occc2C)ccc1N1C(=O)c2cccc(F)c2C1=O`: the EC50 was 49 nM.
With `Cc1ccoc1C(=O)Nc1ccc(N2C(=O)c3ccccc3C2=O)cc1C(F)(F)F`, the EC50 was > 10000 nM.
The same measure, in the same setting: the figure for `Cc1ccoc1C(=O)Nc1ccc(N2C(=O)c3cccc(F)c3C2=O)cc1` is 44 nM.

For the next experiment, the target named is T1, Metabotropic glutamate receptor 1. The experiment can be described thus: Positive allosteric modulation of human mGluR1 by calcium mobilization assay relative to control.
Details: not given
Format: functional.
Target sequence in this assay (Q13255 19-1194 limits assumed): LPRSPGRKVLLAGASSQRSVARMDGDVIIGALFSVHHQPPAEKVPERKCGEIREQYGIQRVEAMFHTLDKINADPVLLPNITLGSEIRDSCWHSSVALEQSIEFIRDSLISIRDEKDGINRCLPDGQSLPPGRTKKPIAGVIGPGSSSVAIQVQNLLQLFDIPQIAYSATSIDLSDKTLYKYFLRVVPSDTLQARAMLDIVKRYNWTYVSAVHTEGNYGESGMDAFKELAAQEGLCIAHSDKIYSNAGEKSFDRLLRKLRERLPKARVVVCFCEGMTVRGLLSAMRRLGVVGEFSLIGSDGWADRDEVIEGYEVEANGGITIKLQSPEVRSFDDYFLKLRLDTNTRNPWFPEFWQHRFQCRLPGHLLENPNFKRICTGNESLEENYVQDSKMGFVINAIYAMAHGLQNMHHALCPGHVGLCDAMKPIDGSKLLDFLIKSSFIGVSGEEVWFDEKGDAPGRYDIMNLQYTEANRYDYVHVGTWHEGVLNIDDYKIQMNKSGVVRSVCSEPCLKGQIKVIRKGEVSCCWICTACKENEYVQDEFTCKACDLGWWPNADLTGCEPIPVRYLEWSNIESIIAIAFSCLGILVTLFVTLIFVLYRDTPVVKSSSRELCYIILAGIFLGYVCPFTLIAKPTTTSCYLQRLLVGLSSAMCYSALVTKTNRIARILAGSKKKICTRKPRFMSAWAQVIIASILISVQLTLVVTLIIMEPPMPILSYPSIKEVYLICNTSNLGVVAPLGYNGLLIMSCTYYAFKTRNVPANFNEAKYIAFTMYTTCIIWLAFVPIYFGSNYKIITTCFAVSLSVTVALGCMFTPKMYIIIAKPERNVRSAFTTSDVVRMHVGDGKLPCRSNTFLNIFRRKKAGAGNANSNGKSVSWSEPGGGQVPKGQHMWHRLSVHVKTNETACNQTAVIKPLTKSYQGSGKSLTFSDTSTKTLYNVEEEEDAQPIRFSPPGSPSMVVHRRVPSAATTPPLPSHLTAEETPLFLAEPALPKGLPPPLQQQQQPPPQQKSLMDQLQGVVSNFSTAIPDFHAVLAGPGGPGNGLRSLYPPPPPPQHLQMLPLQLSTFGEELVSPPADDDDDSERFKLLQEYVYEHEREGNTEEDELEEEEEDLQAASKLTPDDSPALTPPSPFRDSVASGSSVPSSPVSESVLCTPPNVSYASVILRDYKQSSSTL
`Cc1ccoc1C(=O)Nc1ccc(N2C(=O)c3cccc(C)c3C2=O)cc1`: the %max was determined as 108%.
Still for that read-out and setting: the figure for `Cc1ccoc1C(=O)Nc1ccc(N2C(=O)c3cccc(C)c3C2=O)c(C(F)(F)F)c1` is 117%; for `Cc1ccoc1C(=O)Nc1cnc(N2C(=O)c3cccc(Cl)c3C2=O)nc1` it is 84%.
Still for that read-out and setting: in the case of `Cc1ccoc1C(=O)Nc1ccc(N2C(=O)c3ccccc3C2=O)c(F)c1` it was 101%; in that of `COc1cc(N2C(=O)c3ccccc3C2=O)ccc1NC(=O)c1occc1C`, 80%; in that of `Cc1ccoc1C(=O)Nc1ccc(N2C(=O)c3cccc(C)c3C2=O)c(F)c1`, 107%.
Still for that read-out and setting: in the case of `Cc1cc(NC(=O)c2occc2C)ccc1N1C(=O)c2ccccc2C1=O` it was 105%; in that of `COc1cc(NC(=O)c2occc2C)ccc1N1C(=O)c2cccc(Cl)c2C1=O`, 93%; in that of `Cc1ccoc1C(=O)Nc1ccc(N2C(=O)c3cccc(Cl)c3C2=O)nc1`, 91%.
With `Cc1ccoc1C(=O)Nc1ccc(N2C(=O)c3cccc(F)c3C2=O)c(C(F)(F)F)c1`, the %max worked out at 110%.
The same measure, in the same setting: the figure for `Cc1ccoc1C(=O)Nc1ccc(N2C(=O)c3cccc(Cl)c3C2=O)c2ccccc12` is 92%; for `Cc1ccoc1C(=O)Nc1ccc(N2C(=O)c3ccccc3C2=O)nc1` it is 80%; for `COc1cc(NC(=O)c2occc2C)ccc1N1C(=O)c2cccc(F)c2C1=O` it is 103%.
On to `Cc1ccoc1C(=O)Nc1ccc(N2C(=O)c3ccccc3C2=O)c2ccccc12`, for which the %max stood at 99%.
Regarding `Cc1cc(NC(=O)c2occc2C)ccc1N1C(=O)c2cccc(F)c2C1=O`, the %max was 95%.
On the same count and under the same terms, in the case of `Cc1ccoc1C(=O)Nc1ccc(N2C(=O)c3cccc(F)c3C2=O)cc1` it was 96%.

In another experiment the target is T2, Metabotropic glutamate receptor 4 (Homo sapiens, UniProt Q14833). Briefly: Positive allosteric modulation of human mGluR4 by calcium mobilization assay. Format: functional.
T2 sequence (Q14833 whole entry): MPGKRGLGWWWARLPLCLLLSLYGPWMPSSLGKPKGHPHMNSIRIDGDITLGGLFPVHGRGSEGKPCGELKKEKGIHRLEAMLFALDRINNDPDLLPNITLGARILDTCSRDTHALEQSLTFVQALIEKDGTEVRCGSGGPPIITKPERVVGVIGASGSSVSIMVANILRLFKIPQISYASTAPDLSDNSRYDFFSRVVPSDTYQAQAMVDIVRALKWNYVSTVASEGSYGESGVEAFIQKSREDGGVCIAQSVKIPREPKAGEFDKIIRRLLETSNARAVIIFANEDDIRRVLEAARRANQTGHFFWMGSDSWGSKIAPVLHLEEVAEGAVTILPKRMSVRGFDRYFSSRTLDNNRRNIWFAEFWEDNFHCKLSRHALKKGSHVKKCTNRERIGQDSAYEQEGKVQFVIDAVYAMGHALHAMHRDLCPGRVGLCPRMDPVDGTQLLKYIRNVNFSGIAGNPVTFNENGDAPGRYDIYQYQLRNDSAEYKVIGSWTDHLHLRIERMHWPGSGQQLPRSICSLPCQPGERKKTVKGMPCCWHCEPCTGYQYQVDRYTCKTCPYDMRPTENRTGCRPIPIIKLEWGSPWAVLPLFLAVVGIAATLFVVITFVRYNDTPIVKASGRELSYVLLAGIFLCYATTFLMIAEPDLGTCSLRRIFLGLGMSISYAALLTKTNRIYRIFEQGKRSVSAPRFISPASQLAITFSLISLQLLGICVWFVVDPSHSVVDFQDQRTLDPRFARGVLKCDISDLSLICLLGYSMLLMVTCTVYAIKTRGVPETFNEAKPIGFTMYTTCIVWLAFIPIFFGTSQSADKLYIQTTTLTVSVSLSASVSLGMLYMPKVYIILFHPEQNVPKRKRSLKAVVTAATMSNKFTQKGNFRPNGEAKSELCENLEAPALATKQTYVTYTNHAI
Details: not given
As for `Cc1ccoc1C(=O)Nc1ccc(N2C(=O)c3cccc(C)c3C2=O)cc1`, the EC50 was found to be 350 nM.
The same measure, in the same setting: in the case of `Cc1ccoc1C(=O)Nc1ccc(N2C(=O)c3cccc(C)c3C2=O)c(C(F)(F)F)c1` it was 5760 nM.
Regarding `Cc1ccoc1C(=O)Nc1cnc(N2C(=O)c3cccc(Cl)c3C2=O)nc1`, the EC50 was 2530 nM.
On the same count and under the same terms, the figure for `Cc1ccoc1C(=O)Nc1ccc(N2C(=O)c3ccccc3C2=O)c(F)c1` is 265 nM; for `COc1cc(N2C(=O)c3ccccc3C2=O)ccc1NC(=O)c1occc1C` it is > 10000 nM.
Still for that read-out and setting: in the case of `Cc1ccoc1C(=O)Nc1ccc(N2C(=O)c3cccc(C)c3C2=O)c(F)c1` it was 287 nM.
`Cc1cc(NC(=O)c2occc2C)ccc1N1C(=O)c2ccccc2C1=O`: the EC50 came to 885 nM.
The same measure, in the same setting: in the case of `COc1cc(NC(=O)c2occc2C)ccc1N1C(=O)c2cccc(Cl)c2C1=O` it was 647 nM; in that of `Cc1ccoc1C(=O)Nc1ccc(N2C(=O)c3cccc(Cl)c3C2=O)nc1`, 1110 nM; in that of `Cc1ccoc1C(=O)Nc1ccc(N2C(=O)c3cccc(F)c3C2=O)c(C(F)(F)F)c1`, 2870 nM.
The same measure, in the same setting: the figure for `Cc1ccoc1C(=O)Nc1ccc(N2C(=O)c3cccc(Cl)c3C2=O)c2ccccc12` is 513 nM; for `Cc1ccoc1C(=O)Nc1ccc(N2C(=O)c3ccccc3C2=O)nc1` it is > 10000 nM; for `COc1cc(NC(=O)c2occc2C)ccc1N1C(=O)c2cccc(F)c2C1=O` it is 1930 nM.
The same measure, in the same setting: in the case of `Cc1ccoc1C(=O)Nc1ccc(N2C(=O)c3ccccc3C2=O)c2ccccc12` it was 353 nM; in that of `Cc1cc(NC(=O)c2occc2C)ccc1N1C(=O)c2cccc(F)c2C1=O`, 1100 nM.
In the case of `Cc1ccoc1C(=O)Nc1ccc(N2C(=O)c3ccccc3C2=O)cc1C(F)(F)F`, the EC50 is > 10000 nM.
The same measure, in the same setting: in the case of `Cc1ccoc1C(=O)Nc1ccc(N2C(=O)c3cccc(F)c3C2=O)cc1` it was 382 nM.

Another experiment concerns the target T2, Metabotropic glutamate receptor 4. Briefly: Positive allosteric modulation of human mGluR4 by calcium mobilization assay relative to PHCCC. Format: functional.
Details: not given
Consider `Cc1ccoc1C(=O)Nc1ccc(N2C(=O)c3cccc(C)c3C2=O)cc1`, for which the %max was 62%.
As for `Cc1ccoc1C(=O)Nc1ccc(N2C(=O)c3cccc(C)c3C2=O)c(C(F)(F)F)c1`, the %max was 109%.
On the same count and under the same terms, in the case of `Cc1ccoc1C(=O)Nc1cnc(N2C(=O)c3cccc(Cl)c3C2=O)nc1` it was 45%; in that of `Cc1ccoc1C(=O)Nc1ccc(N2C(=O)c3ccccc3C2=O)c(F)c1`, 65%.
On the same count and under the same terms, in the case of `Cc1ccoc1C(=O)Nc1ccc(N2C(=O)c3cccc(C)c3C2=O)c(F)c1` it was 102%; in that of `Cc1cc(NC(=O)c2occc2C)ccc1N1C(=O)c2ccccc2C1=O`, 75%; in that of `COc1cc(NC(=O)c2occc2C)ccc1N1C(=O)c2cccc(Cl)c2C1=O`, 103%.
As to `Cc1ccoc1C(=O)Nc1ccc(N2C(=O)c3cccc(Cl)c3C2=O)nc1`, the %max was 44%.
The same measure, in the same setting: the figure for `Cc1ccoc1C(=O)Nc1ccc(N2C(=O)c3cccc(F)c3C2=O)c(C(F)(F)F)c1` is 80%; for `Cc1ccoc1C(=O)Nc1ccc(N2C(=O)c3cccc(Cl)c3C2=O)c2ccccc12` it is 102%.
The same measure, in the same setting: in the case of `COc1cc(NC(=O)c2occc2C)ccc1N1C(=O)c2cccc(F)c2C1=O` it was 73%; in that of `Cc1ccoc1C(=O)Nc1ccc(N2C(=O)c3ccccc3C2=O)c2ccccc12`, 54%; in that of `Cc1cc(NC(=O)c2occc2C)ccc1N1C(=O)c2cccc(F)c2C1=O`, 86%.
The same measure, in the same setting: the figure for `Cc1ccoc1C(=O)Nc1ccc(N2C(=O)c3cccc(F)c3C2=O)cc1` is 34%.

The species named for another experiment is Homo sapiens. The experiment can be described thus: Selectivity ratio of EC50 for human mGluR4 to EC50 for human mGluR1.
Details: not given
For the compound `Cc1ccoc1C(=O)Nc1ccc(N2C(=O)c3cccc(C)c3C2=O)cc1`, the Ratio EC50 was 21.7.
Same read-out and setting: the figure for `Cc1ccoc1C(=O)Nc1ccc(N2C(=O)c3cccc(C)c3C2=O)c(C(F)(F)F)c1` is 10.8; for `Cc1ccoc1C(=O)Nc1cnc(N2C(=O)c3cccc(Cl)c3C2=O)nc1` it is 12.2; for `Cc1ccoc1C(=O)Nc1ccc(N2C(=O)c3ccccc3C2=O)c(F)c1` it is 11.9.
As for `Cc1ccoc1C(=O)Nc1ccc(N2C(=O)c3cccc(C)c3C2=O)c(F)c1`, the Ratio EC50 turned out to be 11.
On the same count and under the same terms, in the case of `Cc1cc(NC(=O)c2occc2C)ccc1N1C(=O)c2ccccc2C1=O` it was 9.9; in that of `COc1cc(NC(=O)c2occc2C)ccc1N1C(=O)c2cccc(Cl)c2C1=O`, 36.1.
Still for that read-out and setting: the figure for `Cc1ccoc1C(=O)Nc1ccc(N2C(=O)c3cccc(Cl)c3C2=O)nc1` is 31.9; for `Cc1ccoc1C(=O)Nc1ccc(N2C(=O)c3cccc(F)c3C2=O)c(C(F)(F)F)c1` it is 18.5.
Same read-out and setting: in the case of `Cc1ccoc1C(=O)Nc1ccc(N2C(=O)c3cccc(Cl)c3C2=O)c2ccccc12` it was 22.8; in that of `COc1cc(NC(=O)c2occc2C)ccc1N1C(=O)c2cccc(F)c2C1=O`, 13.4; in that of `Cc1ccoc1C(=O)Nc1ccc(N2C(=O)c3ccccc3C2=O)c2ccccc12`, 17.4.
On to `Cc1cc(NC(=O)c2occc2C)ccc1N1C(=O)c2cccc(F)c2C1=O`, for which the Ratio EC50 is 22.4.
Regarding `Cc1ccoc1C(=O)Nc1ccc(N2C(=O)c3cccc(F)c3C2=O)cc1`, the Ratio EC50 amounted to 8.6.
